Patent US9260438B2, “Solid forms of tofacitinib salts” (APOTEX INC., priority 2014, dated 2016)
Counter-ions that a name gives are not always drawn.

Key:
physchem = conditions: thermodynamic from solid
[1] = Solubility of solid forms in water (visual dissolution); conditions: deionized water added drop-wise with agitation until visual dissolution of the solid; hydrochloride

Work on `C[C@@H]1CCN(C(=O)CC#N)C[C@@H]1N(C)c1ncnc2[nH]ccc12.O=C(O)CC(O)(CC(=O)O)C(=O)O` [Tofacitinib citrate, 3-{(3R,4R)-4-methyl-3-[methyl-(7H-pyrrolo[2,3-d]pyrimidin-4-yl)-amino]-piperidin-1-yl}-3-oxo-propionitrile mono-citrate salt, reference compound] yielded a Solubility (physchem; water) of about 2 mg/mL.

Work on `C[C@@H]1CCN(C(=O)CC#N)C[C@@H]1N(C)c1ncnc2[nH]ccc12` [Tofacitinib hydrochloride (APO-A), tofacitinib hydrochloride] yielded a Solubility (physchem; deionized water) of 2500 mg/mL.

`C[C@@H]1CCN(C(=O)CC#N)C[C@@H]1N(C)c1ncnc2[nH]ccc12` [Tofacitinib hydrochloride (APO-B), tofacitinib hydrochloride] gave a Solubility [1] of 2294 mg/mL.

`C[C@@H]1CCN(C(=O)CC#N)C[C@@H]1N(C)c1ncnc2[nH]ccc12` [Tofacitinib hydrochloride (APO-C), tofacitinib hydrochloride] gave a Solubility [1] of 2235 mg/mL.

In the case of `C[C@@H]1CCN(C(=O)CC#N)C[C@@H]1N(C)c1ncnc2[nH]ccc12` [Tofacitinib hydrochloride (APO-D), tofacitinib hydrochloride], the Solubility [1] was 2145 mg/mL.

`C[C@@H]1CCN(C(=O)CC#N)C[C@@H]1N(C)c1ncnc2[nH]ccc12` [Tofacitinib hydrochloride (APO-E), tofacitinib hydrochloride] gave a Solubility [1] of 2235 mg/mL.

Molecule `C[C@@H]1CCN(C(=O)CC#N)C[C@@H]1N(C)c1ncnc2[nH]ccc12` [Tofacitinib hydrochloride (APO-G), tofacitinib hydrochloride] has a Solubility [1] of 2000 mg/mL.
